Where a name gives a salt, the structure may show the parent alone.
Key:
Assay type in all cases: biochemical
[1] = biological target: T1, phosphorylated p-38-alpha kinase (Homo sapiens, UniProt Q16539); assay: P-38 alpha kinase assay P2 (as P1, not pre-incubated); conditions: method P2 (not pre-incubated)
Procedure: Same as assay P1 except that (1) the reaction was not pre-incubated.

[2] = biological target: T2, B-Raf(V599E) kinase (Homo sapiens, UniProt P15056, V600E); assay: B-Raf(V599E) kinase assay B1 (construct 1, MEK1 substrate, coupled spectrophotometric)
Procedure: (§1) The test compounds were incubated with the reaction mixtureat 30° C. for 2 h. […] The reaction rate was calculated using the […] time frame. […] IC50 values were calculated from a series of percent inhibition values determined at a range of inhibitor concentrations using software routines as implemented in the GraphPad Prism software package.
Target sequence in this assay (P15056 with tags, fused parts or gaps V600E): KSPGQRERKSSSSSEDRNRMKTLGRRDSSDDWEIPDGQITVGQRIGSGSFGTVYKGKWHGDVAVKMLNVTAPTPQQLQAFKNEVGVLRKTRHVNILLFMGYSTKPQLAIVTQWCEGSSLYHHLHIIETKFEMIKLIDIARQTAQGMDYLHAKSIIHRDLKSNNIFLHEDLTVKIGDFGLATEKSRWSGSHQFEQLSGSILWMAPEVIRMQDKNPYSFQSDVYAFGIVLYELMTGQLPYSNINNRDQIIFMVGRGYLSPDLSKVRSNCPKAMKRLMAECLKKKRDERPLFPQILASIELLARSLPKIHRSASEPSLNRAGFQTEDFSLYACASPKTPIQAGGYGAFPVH

[3] = biological target: T3, Abl kinase (Homo sapiens, UniProt P00519); assay: Abl kinase assay A1 (pyruvate kinase/lactate dehydrogenase coupled, spectrophotometric); conditions: Method A1
T3 sequence (P00519 229-512): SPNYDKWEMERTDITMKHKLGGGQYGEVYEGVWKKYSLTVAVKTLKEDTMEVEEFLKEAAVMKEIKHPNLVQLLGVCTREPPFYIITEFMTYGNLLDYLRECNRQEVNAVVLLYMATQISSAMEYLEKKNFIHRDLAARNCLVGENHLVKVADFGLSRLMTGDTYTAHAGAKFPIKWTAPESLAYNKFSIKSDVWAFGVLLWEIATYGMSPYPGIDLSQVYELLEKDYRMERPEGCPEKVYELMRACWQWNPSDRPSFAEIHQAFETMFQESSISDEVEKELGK
Procedure: (§2) IC50 values were calculated from a series of percent inhibition values determined at a range of inhibitor concentrations using software routines as implemented in the GraphPad Prism software package.

[4] = biological target: T4, KDR kinase (Homo sapiens, UniProt P35968, DEL940-989/E990V); assay: KDR kinase assay K2 (as K1, 2.1 nM enzyme, 2 h pre-incubation, 1.0 mM ATP); conditions: Method K2
Procedure: as §2

[5] = biological target: T3, Abl kinase; assay: Abl kinase assay A2 (as A1, 1.1 nM enzyme, 2 h pre-incubation, 0.5 mM ATP)
Procedure: as §2

[6] = biological target: T1, phosphorylated p-38-alpha kinase; assay: P-38 alpha kinase assay P1 (coupled spectrophotometric, 2 h pre-incubation)
[7] = biological target: T2, B-Raf(V599E) kinase; assay: B-Raf(V599E) kinase assay B2 (construct 2 at 2 nM, 1 h pre-incubation)
Procedure: as §1
Target sequence in this assay (P15056 433-726 V600E): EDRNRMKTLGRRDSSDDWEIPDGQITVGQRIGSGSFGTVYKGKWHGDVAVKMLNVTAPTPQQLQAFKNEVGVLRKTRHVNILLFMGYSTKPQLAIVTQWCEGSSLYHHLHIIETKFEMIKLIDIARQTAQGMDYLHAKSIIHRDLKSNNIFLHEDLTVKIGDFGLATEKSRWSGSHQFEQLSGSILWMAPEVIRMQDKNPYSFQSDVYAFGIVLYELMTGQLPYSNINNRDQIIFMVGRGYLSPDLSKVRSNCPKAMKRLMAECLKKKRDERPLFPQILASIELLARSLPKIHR
Same as assay B1 except that (1) construct 2 was employed at a nominal concentration of 2 nM (2) the reaction was pre-incubated at 30° C. for 1 h prior to initiation with ATP (3) a reading time frame of 0.5 h to 1.5 h.

[8] = biological target: T4, KDR kinase; assay: KDR kinase assay K1 (pyruvate kinase/lactate dehydrogenase coupled, spectrophotometric); conditions: Method K1; read-out: KDR Data (IC50)
Procedure: as §2

[9] = Method A2, read-out: Abl Data (IC50)
[10] = method P1 (2 h pre-incubation), read-out: P-38 Data

T4 sequence (P35968 with tags, fused parts or gaps DEL940-989/E990V): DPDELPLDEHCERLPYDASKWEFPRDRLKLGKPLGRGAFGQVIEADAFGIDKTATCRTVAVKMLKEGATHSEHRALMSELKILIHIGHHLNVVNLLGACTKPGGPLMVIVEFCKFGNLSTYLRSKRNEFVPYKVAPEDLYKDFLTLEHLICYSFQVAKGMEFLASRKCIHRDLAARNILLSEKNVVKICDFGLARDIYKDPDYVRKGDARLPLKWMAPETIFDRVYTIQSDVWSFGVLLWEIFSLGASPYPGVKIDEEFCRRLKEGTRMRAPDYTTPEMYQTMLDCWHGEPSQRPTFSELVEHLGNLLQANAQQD
T1 sequence (Q16539 1-360 isoform Q16539-2): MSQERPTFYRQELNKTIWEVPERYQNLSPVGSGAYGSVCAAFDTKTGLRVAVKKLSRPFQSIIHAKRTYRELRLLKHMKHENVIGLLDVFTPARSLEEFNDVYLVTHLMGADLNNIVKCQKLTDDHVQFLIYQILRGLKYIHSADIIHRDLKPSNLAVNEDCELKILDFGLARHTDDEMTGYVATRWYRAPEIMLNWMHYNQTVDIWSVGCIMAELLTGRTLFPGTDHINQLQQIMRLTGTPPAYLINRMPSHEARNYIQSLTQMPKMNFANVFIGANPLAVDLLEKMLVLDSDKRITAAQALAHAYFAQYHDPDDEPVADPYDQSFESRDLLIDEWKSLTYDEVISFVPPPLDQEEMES

Row | SMILES | IC50 [1] [nM] | IC50 [7] [nM] | IC50 [5, 9] [nM] | IC50 [6, 10] [nM] | further results
1 | CC(C)(C)c1cc(NC(=O)Nc2cccc(Br)c2)n(-c2cccc(C#N)c2)n1 [Example 5, 1-(3-t-butyl-1-(3-cyanophenyl)-1H-pyrazol-5-yl)-3-(3-bromophenyl)urea] | 38 | – | – | – | IC50 [2]: 87 nM; IC50 ([3]; read-out: Abl Data (IC50)): 2000 nM; IC50 ([4]; read-out: KDR Data (IC50)): 850 nM
2 | CC(C)(C)c1cc(NC(=O)Nc2cccc(Cl)c2)n(-c2cccc(C#N)c2)n1 [Example 8, 1-(3-t-butyl-1-(3-cyanophenyl)-1H-pyrazol-5-yl)-3-(3-chlorophenyl)urea] | 25 | – | – | – | inhibition at 10 µM ([3]; @ 10 μM, read-out: Abl Data (percent inhibition)): 81%; inhibition at 10 µM ([4]; @ 10 μM, read-out: KDR Data (percent inhibition)): 96%
3 | CC(C)(C)c1cc(NC(=O)Nc2cccc(Oc3cccnc3)c2)n(-c2cc(CC(N)=O)c3ccccc3c2)n1 [Example 86, 1-(1-(4-(2-amino-2-oxoethyl)naphthalen-2-yl)-3-t-butyl-1H-pyrazol-5-yl)-3-(3-(pyridin-3-yloxy)phenyl)urea hydrochloride] | – | 179 | – | – | IC50 [5]: 1 nM; IC50 [6]: 24 nM
4 | CC(C)(C)c1cc(NC(=O)Nc2cccc(Cl)c2Cl)n(-c2ccc3[nH]ncc3c2)n1 [Example 121, 1-(3-t-butyl-1-(1H-indazol-5-yl)-1H-pyrazol-5-yl)-3-(2,3-dichlorophenyl)urea] | – | 105 | 1000 | 40 | –
5 | CC(C)(C)c1cc(NC(=O)Nc2cccc(Oc3cccnc3)c2)n(-c2ccc3c(c2)CC(C(=O)O)NC3)n1 (stereo not shown) [Example 189, 6-(3-t-butyl-5-(3-(3-(pyridin-3-yloxy)phenyl)ureido)-1H-pyrazol-1-yl)-1,2,3,4-tetrahydroisoquinoline-3-carboxylic acid] | – | 918 | 3 | – | IC50 [8]: 23 nM
6 | CC(C)(C)c1cc(NC(=O)Nc2cccc(Cl)c2Cl)n(-c2ccc3nc[nH]c(=O)c3c2)n1 [Example 195, 1-(3-t-butyl-1-(4-oxo-3,4-dihydroquinazolin-6-yl)-1H-pyrazol-5-yl)-3-(2,3-dichlorophenyl)urea] | – | 298 | 910 | 46 | –

Source: patent publication US8163756B2 (priority 2004, dated 2012)
